Results: article PMC7024253, “New Napyradiomycin Analogues from Streptomyces sp. Strain CA-271078” (Marine Drugs, 2019)
Values after ≈ are worked out from the molar mass of the structure shown. Like-named read-outs stand apart in the source and are kept apart here.

Columns and labels:
[1] = system: E. coli ATCC 25922; assay: Antibacterial assay against E. coli; assay type: cell-based, Escherichia coli; conditions: top concentration 96 μg/mL (64 μg/mL for 3 and 8); for MIC Ec: MIC = lowest concentration inhibiting ≥ 95% of growth; for MIC: Escherichia coli, ATCC25922, MIC = lowest concentration inhibiting ≥ 95% of growth
[2] = system: M. tuberculosis H37Ra; assay: Antibacterial assay against M. tuberculosis; assay type: cell-based, Mycobacterium tuberculosis; conditions: for MIC Mt / MIC: M. tuberculosis H37Ra, MIC = lowest concentration inhibiting ≥ 95% of growth, top concentration 96 μg/mL (64 μg/mL for 3 and 8); for MIC: Mycobacterium tuberculosis
[3] = system: A. baumannii MB5973; assay: Antibacterial assay against A. baumannii; assay type: cell-based, Acinetobacter baumannii; conditions: MIC = lowest concentration inhibiting ≥ 95% of growth, top concentration 96 μg/mL (64 μg/mL for 3 and 8); for MIC: Acinetobacter baumannii
[4] = system: A. fumigatus ATCC46645; assay: Antifungal assay against A. fumigatus; assay type: cell-based, Aspergillus fumigatus; conditions: A. fumigatus ATCC 46645, MIC = lowest concentration inhibiting ≥ 95% of growth, top concentration 96 μg/mL (64 μg/mL for 3 and 8); for MIC: Aspergillus fumigatus, ATCC46645
[5] = system: methicillin-resistant S. aureus (MRSA) MB5393; assay: Antibacterial assay against MRSA; assay type: cell-based, Staphylococcus aureus; conditions: for MIC MRSA / MIC: MIC = lowest concentration inhibiting ≥ 95% of growth after overnight incubation, top concentration 96 μg/mL (64 μg/mL for 3 and 8); for MIC: Staphylococcus aureus
[6] = system: human liver adenocarcinoma cell line (HepG2); assay: Cytotoxicity assay against HepG2; assay type: cell-based; conditions: for IC50: 10 two-fold dilutions starting at 150, 100 (3, 8) or 30.0 μg/mL (1, 5)
[7] = Homo sapiens, HepG2, HepG-2 cytotoxicity
[8] = MRSA MB5393, read-out: MIC MRSA
[9] = MRSA, read-out: MIC MRSA, MRSA MB5393

Molecule | MIC Ec [1] | MIC Mt [2] | MIC Ab [3] | MIC Af [4] | MIC MRSA ([5]; MRSA MB5393) | IC50 ([6]; HepG-2 cytotoxicity) | MIC [1] | MIC [2] | MIC [3] | IC50 [6, 7] | MIC [4] | MIC [5, 8] | growth-inhibitory activity against Mycobacterium tuberculosis (in words) ([2]; abstract statement) | growth-inhibitory activity against HepG2 (in words) ([6]; abstract statement) | MIC [5, 9] | growth-inhibitory activity against methicillin-resistant Staphylococcus aureus (in words) ([5]; abstract statement)
CC1(C)O[C@@]2(C[C@H]3C(C)(C)[C@@H](Cl)CC[C@]3(C)O)C(=O)c3cc(O)cc(O)c3C(=O)[C@@]2(Cl)C[C@H]1Cl [Compound 13, napyradiomycin B4] | >96 µg/mL | 12 to 24 µg/mL | >96 µg/mL | >96 µg/mL | 12 to 24 µg/mL |  |  |  |  |  |  |  |  |  |  | 
napyradiomycin A2a [Compound 11] | >96 µg/mL | 48 to 96 µg/mL | >96 µg/mL | >96 µg/mL | 12 to 24 µg/mL | 30.4 µM |  |  |  |  |  |  |  |  |  | 
napyradiomycin B2 [Compound 14] | >96 µg/mL | 24 to 48 µg/mL | >96 µg/mL | >96 µg/mL | 3 to 6 µg/mL | 27.1 µM |  |  |  |  |  |  |  |  |  | 
CC1(C)OC2=C(CC1Cl)C(=O)c1c(O)cc(O)cc1C2=O (stereo not drawn) [Compound 7, 3-chloro-6,8-dihydroxy-8-α-lapachone] | >96 µg/mL | 12 to 24 µg/mL | >96 µg/mL | >96 µg/mL | 48 to 96 µg/mL | 187 µM |  |  |  |  |  |  |  |  |  | 
napyradiomycin B5 [Compound 15] | >96 µg/mL | 24 to 48 µg/mL | >96 µg/mL | >96 µg/mL | 12 to 24 µg/mL | 40.1 µM |  |  |  |  |  |  |  |  |  | 
napyradiomycin B6 [Compound 9] | >96 µg/mL | 12 to 24 µg/mL | >96 µg/mL | >96 µg/mL | 48 to 96 µg/mL | 71.2 µM |  |  |  |  |  |  |  |  |  | 
CC1(C)O[C@@]2(C[C@H]3C(C)(C)[C@@H](Cl)CC[C@]3(C)O)C(=O)c3cc(O)cc(O)c3C(=O)[C@@]2(O)C[C@H]1Cl [Compound 4, Napyradiomycin SC] |  |  |  |  |  |  | > 96 µg/mL | 24 to 48 µg/mL (≈ 46.6 to 93.1 µM) | > 96 µg/mL | 264 µM | > 96 µg/mL | > 96 µg/mL |  |  |  | 
CC1=CCC23OC(C)(C)C(Cl)CC2(Cl)C(=O)c2c(cc(O)cc2C3=O)OCC(C)=CCC1 (stereo not shown) [Compound 5, Napyradiomycin D1] |  |  |  |  |  |  | > 96 µg/mL | 24 to 48 µg/mL (≈ 50.1 to 100 µM) | > 96 µg/mL |  |  | 12 to 24 µg/mL (≈ 25 to 50.1 µM) | significant growth-inhibitory activity | significant growth-inhibitory activity | 3 to 48 µg/mL (≈ 6.26 to 100 µM) | significant growth-inhibitory activity
napyradiomycin A2b [Compound 12] | >96 µg/mL | 48 to 96 µg/mL | >96 µg/mL | >96 µg/mL | 12 to 24 µg/mL | 28.6 µM |  |  |  |  |  |  |  |  |  | 
CC(=CCCC(C)=CCC12OC(C)(C)C(Cl)CC1(Cl)C(=O)c1c(O)cc(O)cc1C2=O)CO (stereo not shown) [Compound 10, 18-hydroxynapyradiomycin A1] | >96 µg/mL | >96 µg/mL | >96 µg/mL | >96 µg/mL | 48 to 96 µg/mL | 64.4 µM |  |  |  |  |  |  |  |  |  | 
CC1(C)O[C@@]2(C[C@H]3C(C)(C)[C@@H](Cl)CC[C@]3(C)O)C(=O)c3cc(O)cc(O)c3C(=O)C2=C[C@H]1Cl [Compound 2, Napyradiomycin B7a] |  |  |  |  |  | 41.7 µM | > 96 µg/mL | 12 to 24 µg/mL (≈ 24.1 to 48.2 µM) | > 96 µg/mL | < 50 µM | > 96 µg/mL | 48 µg/mL (≈ 96.5 µM) |  |  | 3 to 48 µg/mL (≈ 6.03 to 96.5 µM) | 
C=C(C)C(O)CCC(C)=CCC12OC(C)(C)C(O)C=C1C(=O)c1c(O)cc(O)cc1C2=O (stereo not shown) [Compound 1, Napyradiomycin A3] |  |  |  |  |  |  | > 96 µg/mL |  | > 96 µg/mL | > 67.8 µM |  | > 96 µg/mL |  |  |  | 
COc1cc(O)c2c(c1)C(=O)C1=C(CC(Cl)C(C)(C)O1)C2=O (stereo not drawn) [Compound 8, 3-chloro-6-hydroxy-8-methoxy-α-lapachone] | >64 µg/mL | >64 µg/mL | >64 µg/mL | >64 µg/mL | >64 µg/mL | 30.2 µM |  |  |  |  |  |  |  |  |  | 
CC1(C)O[C@@]2(C[C@H]3C(C)(C)[C@@H](Cl)CC[C@]3(C)O)C(=O)c3cc(O)cc(O)c3C(=O)C2=C[C@@H]1Cl [Compound 3, Napyradiomycin B7b] |  |  |  |  |  |  | > 64 µg/mL | > 64 µg/mL | > 64 µg/mL | 110 µM | > 64 µg/mL | > 64 µg/mL |  |  |  | 
